Experimental data taken from ChEMBL document CHEMBL4828773, “Novel HDAC1 and HDAC2 Inhibitors for Treating Diseases” (ACS Med Chem Lett, 2021).

Tests used:
Histone deacetylase 2 = Histone deacetylase 2 (Homo sapiens, UniProt Q92769); assay: Inhibition of human HDAC2 preincubated for 10 mins followed by tripeptide substrate addition and measured after 60 mins by fluorescence microplate reader assay
Histone deacetylase 1 = Histone deacetylase 1 (Homo sapiens, UniProt Q13547); assay: Inhibition of HDAC1 (unknown origin) preincubated for 10 mins followed by tripeptide substrate addition and measured after 60 mins by fluorescence microplate reader assay
Histone deacetylase 1, sequence (Q13547 whole entry): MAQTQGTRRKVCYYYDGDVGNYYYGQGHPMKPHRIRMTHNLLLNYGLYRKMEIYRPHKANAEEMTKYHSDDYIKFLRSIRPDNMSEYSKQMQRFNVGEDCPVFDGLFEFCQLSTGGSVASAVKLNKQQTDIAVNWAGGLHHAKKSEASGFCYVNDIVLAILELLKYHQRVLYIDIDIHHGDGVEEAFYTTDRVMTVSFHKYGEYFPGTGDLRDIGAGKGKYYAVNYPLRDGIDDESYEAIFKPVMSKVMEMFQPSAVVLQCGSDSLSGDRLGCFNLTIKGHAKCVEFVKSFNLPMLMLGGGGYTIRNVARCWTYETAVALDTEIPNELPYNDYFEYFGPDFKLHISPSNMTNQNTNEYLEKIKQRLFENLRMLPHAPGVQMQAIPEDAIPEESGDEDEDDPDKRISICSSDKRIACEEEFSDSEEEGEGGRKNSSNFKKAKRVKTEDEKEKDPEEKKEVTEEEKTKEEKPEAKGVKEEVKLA

Histone deacetylase 2, sequence (Q92769 whole entry): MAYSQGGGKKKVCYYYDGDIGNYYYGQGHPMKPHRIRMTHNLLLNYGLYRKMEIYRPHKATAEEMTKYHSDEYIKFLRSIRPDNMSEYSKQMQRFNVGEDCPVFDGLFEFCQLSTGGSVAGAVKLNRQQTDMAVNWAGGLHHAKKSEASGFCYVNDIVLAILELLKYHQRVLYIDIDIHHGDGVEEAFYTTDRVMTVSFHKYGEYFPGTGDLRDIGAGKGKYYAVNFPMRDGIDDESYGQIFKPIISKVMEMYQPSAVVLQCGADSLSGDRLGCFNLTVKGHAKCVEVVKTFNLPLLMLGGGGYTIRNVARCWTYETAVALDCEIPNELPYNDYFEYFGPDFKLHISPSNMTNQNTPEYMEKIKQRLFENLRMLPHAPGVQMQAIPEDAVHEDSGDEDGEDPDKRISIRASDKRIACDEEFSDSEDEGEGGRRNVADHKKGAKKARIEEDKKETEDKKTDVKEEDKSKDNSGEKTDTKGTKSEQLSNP

SMILES	IC50 (Histone deacetylase 2) [nM]	IC50 (Histone deacetylase 1) [nM]
CN(C)CCNc1ccc2cc(C(=O)Nc3cc(-c4cccs4)ccc3N)ncc2c1	5	–
Nc1ccc(-c2ccccc2)cc1NC(=O)c1ccc2c(c1)ncn2CCN1CCOCC1	10	1
CN1C(=O)Cc2cc(C(=O)Nc3cc(-c4cccs4)ccc3N)ccc21	10	5
Nc1ccc(-c2cccs2)cc1NC(=O)c1ccc2c(c1)CC(=O)N2CCCN1CCOCC1	5	1
CN(C)CCN(C)c1ccc2cc(C(=O)Nc3cc(-c4cccs4)ccc3N)cnc2c1	15	–
Nc1ccc(-c2cccs2)cc1NC(=O)c1ccc2c(c1)CC(=O)N2CCN1CCOCC1	5	1
